Reference: the NIST ThermoML archive (doi:10.1016/j.fluid.2017.06.024)

Settings: Liquid; for speed of sound: Frequency=3 MHz, Pulse-echo method; for mass density: Vibrating tube method

CC(C)OC(C)C [diisopropyl ether]
Settings	mass density, 293.15 K [kg/m3]	mass density, 303.15 K [kg/m3]	mass density, 313.15 K [kg/m3]	mass density, 323.15 K [kg/m3]	mass density, 333.15 K [kg/m3]	speed of sound, 293.15 K [m/s]	speed of sound, 303.15 K [m/s]	speed of sound, 313.15 K [m/s]	speed of sound, 323.15 K [m/s]	speed of sound, 333.15 K [m/s]
100 kPa	723.5	712.9	702.2	691.5	680.6	1019.7	974.32	930.24	887.83	847.29
10000 kPa	734.6	725.2	715.5	706	696.3	–	–	–	–	–
20000 kPa	744.5	735.9	726.9	718	709.3	1161.2	1122.6	1086.8	1051.9	1017.8
30000 kPa	753.3	745.3	736.9	728.5	720.5	–	–	–	–	–
40000 kPa	761.3	753.8	745.7	737.8	730.3	1274.5	1240.4	1207.9	1177.1	1146.8
50000 kPa	768.6	761.5	753.8	746.2	739.1	–	–	–	–	–
60000 kPa	775.4	768.5	761.1	753.9	747.1	1369.3	1337.6	1308.1	1279	1252.4
70000 kPa	781.7	775.1	768.1	761	754.5	–	–	–	–	–
80000 kPa	787.6	781.2	774.3	767.5	761.4	1454.2	1423.4	1396.7	1368.7	1343.2
90000 kPa	793.2	787	780.3	773.7	767.8	–	–	–	–	–
100000 kPa	798.5	792.4	786	779.5	–	1528.7	1501.9	1475	1448.7	–
110000 kPa	803.5	797.6	791.5	785	–	–	–	–	–	–
120000 kPa	808.4	802.5	796.4	790.3	–	–	–	–	–	–
130000 kPa	813	807.3	801.4	795.2	–	–	–	–	–	–
140000 kPa	817.4	811.8	805.9	800	–	–	–	–	–	–
